The values that follow come from patent US12576018B2, “Active agents for skin and hair care with sensory modifying properties” (SYMRISE AG, priority 2019, dated 2026).

This experiment has as its system skin. Kind of experiment: Sensory assessment of 1 wt.-% 3-hydroxypropyl undecylenate in o/w emulsion versus placebo. The note with it: 1 wt.-% in o/w emulsion vs placebo without active. It is filed as in vivo, human. The method, then:
Heat phase A and C separately up to 80° C. Disperse phase B in phase A. Add phase C to phase AB and emulsify using a HomoRex stirrer (3 min, […]). Add phase D and neutralize. Allow to cool by using a vane stirrer (10 min at 150 rpm, then 10 min at 100 rpm). Pre-dissolve 3-hydroxypropyl undecylenate with pentylene glycol and propylene glycol (phase E) and add to the emulsion by using a vane stirrer (10 min, 100 rpm). Sensory Assessment: Test design (for two samples; presented in random order) 100 μl of sample was applied on the forearm. Sample was distributed with index and middle finger in rotary movements for 20 seconds. Then the second sample is applied on the other forearm and again distributed. After 3 minutes the skin feel is evaluated. Question to the panellists: Which formulation (A or B) leaves the skin more soft and moisturized on a scale from 0-4? (Soft/moisture: 0=not at all; 4=very strong)

For `C=CCCCCCCCCC(=O)OCCCO` [3-hydroxypropyl undecylenate], the “Soft and moisturized skin feel versus placebo (in words)” value was “more soft and moisturized skin feel”.
